Measurements: patent publication US20080242661A1, “Novel compounds useful for the treatment of degenerative & inflammatory diseases” (priority 2006, published 2008)

Target: purified PDE1A enzyme (Homo sapiens, UniProt P54750)
Assay: In vitro PDE1A assay, dose response (Biomol Cyclic Nucleotide Phosphodiesterase Assay Kit, colorimetric)
Assay type: biochemical
Conditions: 100 μM cAMP, 45 min at 37° C., 8 points from 20 μM, duplicate
Source text: For the dose response and further screening, we used the Cyclic Nucleotide Phosphodiesterase Assay Kit from Biomol, a colorimetric, non-radioactive assay. The basis for the assay is the cleavage of cAMP by PDE1A. The 5′AMP is further cleaved into the nucleoside and phosphate by the enzyme 5′-nucleotidase (catnr KI-307). The phosphate released due to enzymatic cleavage is quantified using BIOMOL GREEN™ reagent (catnr AK-111) in a modified Malachite Green assay 1,2. A PDE1A inhibitor will result in a decrease of the signal.
For the enzymatic reaction a mix of 25 μL with purified PDE1A enzyme, 100 μM cAMP, 5′Nucleotidase and the compound is made in a clear 384-plate. The reaction buffer is Tris 20 mM pH 7.4, 4 μg/ml calmodulin, 3 mM MgCl2, 1.5 mM CaCl2, 0.2 mg/mL BSA and 0.001% Brij-35. After an incubation of 45 minutes at 37° C., the reaction is stopped by the addition of 50 μL BIOMOL GREEN™ reagent. After 30 minutes incubation at room temperature, the readout is performed on the Envision (absorption at 615 nm).
All compounds are tested in duplicate starting from 20 μM followed by a ⅓ serial dilution, 8 points (20 μM-6.67 μM-2.22 μM-740 nM-247 nM-82 nM-27 nM-9 nM) in a final concentration of 1% DMSO. As the positive dose response control compound Vardenafil is used. For the calculation of z′ and PIN values 10 μM Vardenafil is used as positive control (100% inhibition) and 1% DMSO as negative control (0% inhibition).
The following compounds have been or can be prepared according to the synthetic methods described above. For the purpose of Table 2 below, activity of each compound, which can be determined using the PDE1A assay method described in above, is expressed as follows: […]

Structure (SMILES) | IC50
CCCc1nn(C)c2c(=O)[nH]c(N(C)Cc3ccc(N4CCOCC4)cc3)nc12 [Example 61, 1-methyl-5-(methyl(4-morpholinobenzyl)amino)-3-propyl-1H-pyrazolo[4,3-d]pyrimidin-7(6H)-one] | 101 to 500 nM
CCCc1nn(C)c2c(=O)[nH]c(NCc3ccc4ccn(C)c4c3)nc12 [Example 69, 1-methyl-5-((1-methyl-1H-indol-6-yl)methylamino)-3-propyl-1H-pyrazolo[4,3-d]pyrimidin-7(6H)-one] | 101 to 500 nM
CCCc1nn(C)c2c(=O)[nH]c(N(C)Cc3ccccc3Cl)nc12 [Example 24, 5-((2-chlorobenzyl)(methyl)amino)-1-methyl-3-propyl-1H-pyrazolo[4,3-d]pyrimidin-7(6H)-one] | 101 to 500 nM
CCCc1nn(C)c2c(=O)[nH]c(NCCc3ccc(F)cc3)nc12 [Example 87, 5-(4-fluorophenethylamino)-1-methyl-3-propyl-1H-pyrazolo[4,3-d]pyrimidin-7(6H)-one] | > 500 nM
CCCc1nn(C)c2c(=O)[nH]c(N(C)Cc3ccc(OC)cc3)nc12 [Example 9, 5-((4-methoxybenzyl)(methyl)amino)-1-methyl-3-propyl-1H-pyrazolo[4,3-d]pyrimidin-7(6H)-one] | < 100 nM
CCCc1nn(C)c2c(=O)[nH]c(NCc3ccc(S(N)(=O)=O)cc3)nc12 [Example 120, 4-((1-methyl-7-oxo-3-propyl-6,7-dihydro-1H-pyrazolo[4,3-d]pyrimidin-5-ylamino)methyl)benzenesulfonamide] | > 500 nM
Cc1nc(-c2ccccc2)sc1CN(C)c1nc2c(C(C)(C)C)nn(C)c2c(=O)[nH]1 [Example 80, 3-tert-butyl-1-methyl-5-(methyl((4-methyl-2-phenylthiazol-5-yl)methyl)amino)-1H-pyrazolo[4,3-d]pyrimidin-7(6H)-one] | < 100 nM
CCCN(CCC)c1nc2c(C3CCCC3)nn(C)c2c(=O)[nH]1 [Example 78, 3-cyclopentyl-5-(dipropylamino)-1-methyl-1H-pyrazolo[4,3-d]pyrimidin-7(6H)-one] | < 100 nM
Cn1nc(C2CCCC2)c2nc(N3CCCCC3)[nH]c(=O)c21 [Example 85, 3-cyclopentyl-1-methyl-5-(piperidin-1-yl)-1H-pyrazolo[4,3-d]pyrimidin-7(6H)-one] | > 500 nM
CCCc1nn(C)c2c(=O)[nH]c(N(C)CCC(C)(C)C)nc12 [Example 110, 5-((3,3-dimethylbutyl)(methyl)amino)-1-methyl-3-propyl-1H-pyrazolo[4,3-d]pyrimidin-7(6H)-one] | < 100 nM
CCCc1nn(C)c2c(=O)[nH]c(N(C)Cc3cccc(N4CCOCC4)c3)nc12 [Example 10, 1-methyl-5-(methyl(3-morpholinobenzyl)amino)-3-propyl-1H-pyrazolo[4,3-d]pyrimidin-7(6H)-one] | 101 to 500 nM
CCCN(CCC)c1nc2c(C3CC3)nn(C)c2c(=O)[nH]1 [Example 125, 3-cyclopropyl-5-(dipropylamino)-1-methyl-1H-pyrazolo[4,3-d]pyrimidin-7(6H)-one] | 101 to 500 nM
CCCc1nn(C)c2c(=O)[nH]c(N(Cc3cccc(-n4cccc4)c3)CC(C)C)nc12 [Example 101] | < 100 nM
CCCc1nn(C)c2c(=O)[nH]c(NCCc3cnn(-c4ccccc4)c3)nc12 [Example 88, 1-methyl-5-(2-(1-phenyl-1H-pyrazol-4-yl)ethylamino)-3-propyl-1H-pyrazolo[4,3-d]pyrimidin-7(6H)-one] | > 500 nM
CCCc1nn(C)c2c(=O)[nH]c(N(C)Cc3nn(C)c4ccccc34)nc12 [Example 35, 1-methyl-5-(methyl((1-methyl-1H-indazol-3-yl)methyl)amino)-3-propyl-1H-pyrazolo[4,3-d]pyrimidin-7(6H)-one] | > 500 nM
CCCc1nn(C)c2c(=O)[nH]c(N(Cc3cccc(N4CCOCC4)c3)CC(C)CC)nc12 (stereo not drawn) [Example 114, 1-methyl-5-((2-methylbutyl)(3-morpholinobenzyl)amino)-3-propyl-1H-pyrazolo[4,3-d]pyrimidin-7(6H)-one] | < 100 nM
CCCc1nn(C)c2c(=O)[nH]c(N(C)Cc3cccc(-c4ccncc4)c3)nc12 [Example 43, 1-methyl-5-(methyl(3-(pyridin-4-yl)benzyl)amino)-3-propyl-1H-pyrazolo[4,3-d]pyrimidin-7(6H)-one] | < 100 nM
CCCc1nn(C)c2c(=O)[nH]c(NCc3cc(-c4ccccc4)nn3C)nc12 [Example 66, 1-methyl-5-((1-methyl-3-phenyl-1H-pyrazol-5-yl)methylamino)-3-propyl-1H-pyrazolo[4,3-d]pyrimidin-7(6H)-one] | < 100 nM

Structure (SMILES) | IC50
CCC(CC)CN(Cc1cccc(-n2cccn2)c1)c1nc2c(C(C)(C)C)nn(C)c2c(=O)[nH]1 [Example 121] | < 100 nM
CCCc1nn(C)c2c(=O)[nH]c(NCc3ccc4c(c3)CCO4)nc12 [Example 62, 5-((2,3-dihydrobenzofuran-5-yl)methylamino)-1-methyl-3-propyl-1H-pyrazolo[4,3-d]pyrimidin-7(6H)-one] | 101 to 500 nM
CCCN(CCC)c1nc2c(C(C)(C)C)nn(C)c2c(=O)[nH]1 [Example 89, 3-tert-butyl-5-(dipropylamino)-1-methyl-1H-pyrazolo[4,3-d]pyrimidin-7(6H)-one] | < 100 nM
CCCc1nn(C)c2c(=O)[nH]c(N(C)Cc3ccc(-c4ccccn4)cc3)nc12 [Example 44, 1-methyl-5-(methyl(4-(pyridin-2-yl)benzyl)amino)-3-propyl-1H-pyrazolo[4,3-d]pyrimidin-7(6H)-one] | 101 to 500 nM
CCCc1nn(C)c2c(=O)[nH]c(N(CCC(C)C)Cc3ccc(Cl)c(Cl)c3)nc12 [Example 45, 5-((3,4-dichlorobenzyl)(isopentyl)amino)-1-methyl-3-propyl-1H-pyrazolo[4,3-d]pyrimidin-7(6H)-one] | < 100 nM
CCCc1nn(C)c2c(=O)[nH]c(Nc3ccc4[nH]ncc4c3)nc12 [Example 7, 5-(1H-indazol-5-ylamino)-1-methyl-3-propyl-1H-pyrazolo[4,3-d]pyrimidin-7(6H)-one] | > 500 nM
CCCc1nn(C)c2c(=O)[nH]c(N(C)Cc3ccccc3)nc12 [Example 33, 5-(benzyl(methyl)amino)-1-methyl-3-propyl-1H-pyrazolo[4,3-d]pyrimidin-7(6H)-one] | 101 to 500 nM
CCCc1nn(C)c2c(=O)[nH]c(N(CCC(C)C)Cc3cccc(-n4cccn4)c3)nc12 [Example 106] | < 100 nM
CCCc1nn(C)c2c(=O)[nH]c(N(Cc3ccc(F)cc3)CC(C)C)nc12 [Example 98, 5-((4-fluorobenzyl)(isobutyl)amino)-1-methyl-3-propyl-1H-pyrazolo[4,3-d]pyrimidin-7(6H)-one] | < 100 nM
Cn1nc(C(C)(C)C)c2nc(N(CCC(C)(C)C)Cc3cccc(N4CCOCC4)c3)[nH]c(=O)c21 [Example 103, 3-tert-butyl-5-((3,3-dimethylbutyl)(3-morpholinobenzyl)amino)-1-methyl-1H-pyrazolo[4,3-d]pyrimidin-7(6H)-one] | < 100 nM
CCCc1nn(C)c2c(=O)[nH]c(NCc3ccccc3OCCN3CCOCC3)nc12 [Example 50, 1-methyl-5-(2-(2-morpholinoethoxy)benzylamino)-3-propyl-1H-pyrazolo[4,3-d]pyrimidin-7(6H)-one] | > 500 nM
CCCc1nn(C)c2c(=O)[nH]c(N(C)Cc3ccc(-c4ccncc4)cc3)nc12 [Example 40, 1-methyl-5-(methyl(4-(pyridin-4-yl)benzyl)amino)-3-propyl-1H-pyrazolo[4,3-d]pyrimidin-7(6H)-one] | < 100 nM
CCCc1nn(C)c2c(=O)[nH]c(N(C)CCC)nc12 [Example 30, 1-methyl-5-(methyl(propyl)amino)-3-propyl-1H-pyrazolo[4,3-d]pyrimidin-7(6H)-one] | 101 to 500 nM
CCCc1nn(C)c2c(=O)[nH]c(N(C)Cc3ccc(F)cc3)nc12 [Example 21, 5-((4-fluorobenzyl)(methyl)amino)-1-methyl-3-propyl-1H-pyrazolo[4,3-d]pyrimidin-7(6H)-one] | < 100 nM
CCCc1nn(C)c2c(=O)[nH]c(N(CC(C)C)CC(C)C)nc12 [Example 29, 5-(diisobutylamino)-1-methyl-3-propyl-1H-pyrazolo[4,3-d]pyrimidin-7(6H)-one] | 101 to 500 nM
CCCc1nn(C)c2c(=O)[nH]c(N(C)CC(C)CC)nc12 (stereo not drawn) [Example 112, 1-methyl-5-(methyl(2-methylbutyl)amino)-3-propyl-1H-pyrazolo[4,3-d]pyrimidin-7(6H)-one] | 101 to 500 nM
CC(C)CN(C)c1nc2c(C(C)(C)C)nn(C)c2c(=O)[nH]1 [Example 99, 3-tert-butyl-5-(isobutyl(methyl)amino)-1-methyl-1H-pyrazolo[4,3-d]pyrimidin-7(6H)-one] | < 100 nM
CN(Cc1ccc(F)cc1)c1nc2c(C3CCCC3)nn(C)c2c(=O)[nH]1 [Example 70, 3-cyclopentyl-5-((4-fluorobenzyl)(methyl)amino)-1-methyl-1H-pyrazolo[4,3-d]pyrimidin-7(6H)-one] | < 100 nM
